# Test results reported in patent US9771369B2, “Compounds and methods for kinase modulation, and indications therefor” (Plexxikon Inc., priority 2014, dated 2017).
# Biological target: c-Kit kinase (Homo sapiens (Human), UniProt P10721)
# Assay: c-Kit biochemical assay (AlphaScreen kinase activity)
# Method: Assays for biochemical cell-based activity of c-kit kinase are known in the art, for example, as described in U.S. Pat. Nos. 7,498,342 and 7,846,941, the disclosures of which are hereby incorporated by reference as it relates to such assays. The c-kit (or kinase domain thereof) is an active kinase in AlphaScreen. IC50 values are determined with respect to inhibition of c-Kit kinase activity, where inhibition of phosphorylation of a peptide substrate is measured as a function of compound concentration. Compounds to be tested were dissolved in DMSO to a concentration of 30 mM. These were diluted 30 μl into 130 μl of DMSO (4 mM) and 1 μl was added to an assay plate. These were then serially diluted 1:3 (50 μl to 100 μl DMSO) for a total of 8 points. Plates were prepared such that each kinase reaction is 30 μl in 1× kinase buffer (50 mM HEPES, pH 7.2, 5 mM MgCl2, 5 mM MnCl2, 0.01% NP-40, 0.2% BSA), 5% DMSO and 10 μM ATP. Substrate was 100 nM biotin-(E4Y)3 (Open Source Biotech, Inc.). C-kit kinase was at 0.1 ng per sample. After incubation of the kinase reaction for 1 hour at room temperature, 5 μl of donor beads (Streptavidin coated beads (Perkin Elmer Life Science) final concentration 1 μg/ml) in stop buffer (50 mM EDTA in 1× kinase buffer) was added, the sample was mixed and incubated for 30 minutes at room temperature before adding […] of acceptor beads (PY30 coated beads (Perkin Elmer Life Science) final concentration 1 μg/ml) in stop buffer. The samples were incubated for 60 minutes at room temperature and the signal per well was read on AlphaQuest reader. Phosphorylated substrate results in binding of the PY30 antibody and association of the donor and acceptor beads such that signal correlates with kinase activity. The signal vs. compound concentration was used to determine the IC50.
# Compounds were also tested using a similar assay with a 10-fold higher ATP concentration. For these samples, compounds to be tested were dissolved in DMSO to a concentration of 30 mM. These were diluted 30 μl into 130 μl of DMSO (4 mM) and 1 μl was added to an assay plate. These were then serially diluted 1:3 (50 μl to 100 μl DMSO) for a total of 8 points. Plates were prepared such that each kinase reaction is 30 μl in 1× kinase buffer (25 mM HEPES, pH 7.5, 2 mM MgCl2, 2 mM MnCl2, 0.01% […], 1 mM DTT, and 0.001% BSA), 5% DMSO and 100 μM ATP. Substrate was 30 nM biotin-(E4Y)10 (Upstate Biotech, Cat#12-440). C-kit kinase was at 1 ng per sample. After incubation of the kinase reaction for 1 hour at room temperature, 5 μl of donor beads (Streptavidin coated beads (Perkin Elmer Life Science) final concentration 10 μg/ml) in stop buffer (25 mM HEPES pH 7.5, 100 mM EDTA, 0.3% BSA) was added, the sample was mixed and incubated for 30 minutes at room temperature before adding 5 μl of acceptor beads (PY30 coated beads (Perkin Elmer Life Science) final concentration 10 μg/ml) in stop buffer. The samples were incubated for 60 minutes at room temperature and the signal per well was read on AlphaQuest or Envision reader (Perkin Elmer Life Science). Phosphorylated substrate results in binding of the PY30 antibody and association of the donor and acceptor beads such that signal correlates with kinase activity. The signal vs. compound concentration was used to determine the IC50.
# The c-kit enzyme used in the above assay was either obtained from Cell Signaling Technology (Cat. #7754) or was prepared as follows: A plasmid encoding kit (DNA and encoded protein sequences shown below) was engineered using common polymerase chain reaction (PCR) methods. Complementary DNA cloned from various human tissues were purchased from Invitrogen, and these were used as substrates in the PCR reactions. Specific custom synthetic oligonucleotide primers were designed to initiate the PCR product, and also to provide the appropriate restriction enzyme cleavage sites for ligation with the plasmids. […]
# Sequence of c-Kit kinase (P10721 26-976): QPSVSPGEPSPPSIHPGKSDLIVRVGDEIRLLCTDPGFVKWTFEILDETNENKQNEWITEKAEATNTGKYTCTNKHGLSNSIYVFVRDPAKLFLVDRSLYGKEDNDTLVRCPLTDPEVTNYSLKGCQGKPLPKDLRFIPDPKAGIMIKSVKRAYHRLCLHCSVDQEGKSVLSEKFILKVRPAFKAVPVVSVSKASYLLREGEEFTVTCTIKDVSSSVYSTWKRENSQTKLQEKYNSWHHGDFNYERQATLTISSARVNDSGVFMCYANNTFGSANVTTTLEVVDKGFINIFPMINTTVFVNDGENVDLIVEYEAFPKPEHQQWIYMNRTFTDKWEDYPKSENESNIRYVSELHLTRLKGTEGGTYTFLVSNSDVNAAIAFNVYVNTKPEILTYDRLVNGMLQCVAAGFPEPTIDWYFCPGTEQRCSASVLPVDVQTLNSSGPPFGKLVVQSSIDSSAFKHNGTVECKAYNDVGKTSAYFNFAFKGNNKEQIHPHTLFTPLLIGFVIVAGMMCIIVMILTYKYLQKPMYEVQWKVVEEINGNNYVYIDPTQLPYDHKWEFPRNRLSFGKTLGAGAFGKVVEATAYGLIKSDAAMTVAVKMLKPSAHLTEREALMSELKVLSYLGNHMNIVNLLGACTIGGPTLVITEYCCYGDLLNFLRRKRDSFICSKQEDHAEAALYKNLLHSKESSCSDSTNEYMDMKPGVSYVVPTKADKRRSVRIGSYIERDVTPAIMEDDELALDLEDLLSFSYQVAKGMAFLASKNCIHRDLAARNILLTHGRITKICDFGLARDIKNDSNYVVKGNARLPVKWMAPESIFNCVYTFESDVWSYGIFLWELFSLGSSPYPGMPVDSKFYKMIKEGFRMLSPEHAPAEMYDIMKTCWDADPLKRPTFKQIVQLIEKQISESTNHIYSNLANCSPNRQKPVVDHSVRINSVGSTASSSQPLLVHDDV
row,Structure (SMILES),IC50 [µM]
1,"COc1cc(-c2cc3c(N4CCC(c5nc(C)c(-c6ccc(F)cc6)[nH]5)CC4)ncnc3[nH]2)ccn1 [P-3007, 4-[4-[5-(4-fluorophenyl)-4-methyl-1H-imidazol-2-yl]-1-piperidyl]-6-(2-methoxy-4-pyridyl)-7H-pyrrolo[2,3-d]pyrimidine]",1 to 10
2,"COc1cc(-c2cc3c(N4CCC(c5nc(C6CC6)c(-c6ccccc6)[nH]5)CC4)ncnc3[nH]2)ccn1 [P-3008, 4-[4-(4-cyclopropyl-5-phenyl-1H-imidazol-2-yl)-1-piperidyl]-6-(2-methoxy-4-pyridyl)-7H-pyrrolo[2,3-d]pyrimidine]",0.0001 to 1
3,"Fc1ccc(-c2cc3c(N4CCC(c5nc(C6CC6)c(-c6ccccc6)[nH]5)CC4)ncnc3[nH]2)cc1 [P-3009, 4-[4-(4-cyclopropyl-5-phenyl-1H-imidazol-2-yl)-1-piperidyl]-6-(4-fluorophenyl)-7H-pyrrolo[2,3-d]pyrimidine]",0.0001 to 1
4,"N#Cc1ccc(-c2cc3c(N4CCC(c5nc(C6CC6)c(-c6ccccc6)[nH]5)CC4)ncnc3[nH]2)cc1 [P-3010, 4-[4-[4-(4-cyclopropyl-5-phenyl-1H-imidazol-2-yl)-1-piperidyl]-7H-pyrrolo[2,3-d]pyrimidin-6-yl]benzonitrile]",0.0001 to 1
5,"Cc1nc(C2CCN(c3ncnc4[nH]c(-c5ccc(F)cc5)cc34)CC2)[nH]c1-c1cccc(OC(F)(F)F)c1 [P-3011, 6-(4-fluorophenyl)-4-[4-[4-methyl-5-[3-(trifluoromethoxy)phenyl]-1H-imidazol-2-yl]-1-piperidyl]-7H-pyrrolo[2,3-d]pyrimidine]",1 to 10
6,"CCOc1cc(-c2[nH]c(C3CCN(c4ncnc5[nH]c(-c6ccc(C#N)cc6)cc45)CC3)nc2C)ccc1C [P-3095, 4-[4-[4-[5-(3-ethoxy-4-methyl-phenyl)-4-methyl-1H-imidazol-2-yl]-1-piperidyl]-7H-pyrrolo[2,3-d]pyrimidin-6-yl]benzonitrile]",0.0001 to 1
7,"CCOc1cc(-c2[nH]c(C3CCN(c4ncnc5[nH]c(-c6ccnc(OC)c6)cc45)CC3)nc2C)ccc1C [P-3096, 4-[4-[5-(3-ethoxy-4-methyl-phenyl)-4-methyl-1H-imidazol-2-yl]-1-piperidyl]-6-(2-methoxy-4-pyridyl)-7H-pyrrolo[2,3-d]pyrimidine]",0.0001 to 1
8,"Cc1nc(C2CCN(c3ncnc4[nH]c(-c5ccnc(C(F)(F)F)c5)cc34)CC2)[nH]c1-c1ccccc1 [P-3097, 4-[4-(4-methyl-5-phenyl-1H-imidazol-2-yl)-1-piperidyl]-6-[2-(trifluoromethyl)-4-pyridyl]-7H-pyrrolo[2,3-d]pyrimidine]",1 to 10
9,"Cc1nc(C2CCN(c3ncnc4[nH]c(-c5cccc(C(F)(F)F)c5)cc34)CC2)[nH]c1-c1ccccc1 [P-3098, 4-[4-(4-methyl-5-phenyl-1H-imidazol-2-yl)-1-piperidyl]-6-[3-(trifluoromethyl)phenyl]-7H-pyrrolo[2,3-d]pyrimidine]",1 to 10
10,"CCOc1ccc(-c2[nH]c(C3(C)CCN(c4ncnc5[nH]c(C)cc45)CC3)nc2C)cc1C [P-3099, 4-[4-[5-(4-ethoxy-3-methyl-phenyl)-4-methyl-1H-imidazol-2-yl]-4-methyl-1-piperidyl]-6-methyl-7H-pyrrolo[2,3-d]pyrimidine]",0.0001 to 1
11,"CCc1ccc(-c2[nH]c(C3(C)CCN(c4ncnc5[nH]c(C)cc45)CC3)nc2C)cc1 [P-3101, 4-[4-[5-(4-ethylphenyl)-4-methyl-1H-imidazol-2-yl]-4-methyl-1-piperidyl]-6-methyl-7H-pyrrolo[2,3-d]pyrimidine]",0.0001 to 1
12,"COc1ccc(-c2[nH]c(C3(C)CCN(c4ncnc5[nH]c(C)cc45)CC3)nc2C)cc1C [P-3102, 4-[4-[5-(4-methoxy-3-methyl-phenyl)-4-methyl-1H-imidazol-2-yl]-4-methyl-1-piperidyl]-6-methyl-7H-pyrrolo[2,3-d]pyrimidine]",1 to 10
13,"COc1cc(-c2cc3c(N4CCC(c5nc(C)c(-c6ccc(C)c(OC)c6)[nH]5)CC4)ncnc3[nH]2)ccn1 [P-3104, 4-[4-[5-(3-methoxy-4-methyl-phenyl)-4-methyl-1H-imidazol-2-yl]-1-piperidyl]-6-(2-methoxy-4-pyridyl)-7H-pyrrolo[2,3-d]pyrimidine]",10 to 300
